According to article PMC12596218 (Journal of Lipid Research, 2025):
Where “and” joins values, the source holds several entries; their conditions need not be identical. Equal entries are not always repeated.

Assays:
NTCP [1] = target: T1, NTCP (Homo sapiens, UniProt Q14973); test: [3H]preS1 peptide binding to NTCP-HEK293 cells; details: 5 nM [3H]preS1; two independent experiments
T1 construct: stably transfected with the full open reading frames of human NTCP, ASBT, SOAT, OATP1B1, OATP1B3, OATP2B1, and murine Asbt (mAsbt); expressed in transfected cells; host or cells: HEK293 (Flp-In), stably transfected, tetracycline-induced
T1 sequence (Q14973 1-349): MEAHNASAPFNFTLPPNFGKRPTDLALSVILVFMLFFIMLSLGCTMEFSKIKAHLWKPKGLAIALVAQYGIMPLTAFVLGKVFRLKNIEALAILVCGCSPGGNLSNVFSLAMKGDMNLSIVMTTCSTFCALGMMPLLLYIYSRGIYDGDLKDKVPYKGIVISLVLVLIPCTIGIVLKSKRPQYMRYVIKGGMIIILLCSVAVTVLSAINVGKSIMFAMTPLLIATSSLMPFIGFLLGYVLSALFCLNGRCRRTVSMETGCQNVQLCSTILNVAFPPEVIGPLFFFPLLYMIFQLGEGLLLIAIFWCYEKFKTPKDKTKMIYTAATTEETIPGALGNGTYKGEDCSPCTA
Excerpt: (§1) Human embryonic kidney HEK293 cells, stably transfected with the full open reading frames of human NTCP, ASBT, SOAT, OATP1B1, OATP1B3, OATP2B1, and murine Asbt (mAsbt) were used as reported ([18], [20], [21], [22], [23]). The NTCP, ASBT, and mAsbt constructs were C-terminally tagged with the FLAG epitope, and the SOAT construct was C-terminally tagged with green fluorescent protein. Non-transfected Flp-In HEK293 cells (Thermo Fisher Scientific) served as the control. All cell lines were maintained at 37°C, 5% CO2 and 95% humidity in DMEM/F-12 medium (Thermo Fisher Scientific) supplemented with 10% fetal calf serum (Sigma-Aldrich), 4 mM L-glutamine (PAA) and penicillin/streptomycin (PAA). […]
(§2) Cells were seeded onto poly-L-lysine-coated 96-well plates, induced with 1 μg/ml tetracycline, and grown to confluence over 72 h at 37°C. […] Then, the cell-associated radioactivity of the respective tritium-labeled substrate or ligand was quantified by liquid scintillation counting using MicroScint-20 scintillation cocktail (Revvity) in a Packard Microplate Scintillation Counter TopCount NXT (Packard Instrument Company). […] Finally, all net transport data were expressed as uptake or binding as % of control. […] From the specific uptake rates, Michaelis Menten Km values were calculated by non-linear regression analysis.

NTCP [2] = details: cited from earlier work
NTCP [3] = target: T1, NTCP; test: [3H]rosuvastatin transport inhibition assay in NTCP-HEK293 cells; format: cell-based; details: 1 μM [3H]rosuvastatin, 10 min; two independent experiments; read-out: IC50 NTCP [3H]rosuvastatin uptake
Excerpt: as §1, §2

NTCP [4] = target: T1, NTCP; test: [3H]DHEAS transport inhibition assay in NTCP-HEK293 cells; format: cell-based; details: 1 μM [3H]DHEAS, 10 min; two independent experiments; read-out: IC50 NTCP [3H]DHEAS uptake
Excerpt: as §1, §2

OATP2B1 = details: cited from earlier work
murine Asbt (mAsbt) = target: T2, murine Asbt (mAsbt) (Mus musculus, UniProt P70172); test: [3H]TC transport and inhibition assay in mAsbt-HEK293 cells; format: cell-based; details: for Inhibition curve/AUC of mAsbt compared to ASBT: 1 μM [3H]TC, 10 min, AUC combined from two experiments
T2 construct: stably transfected with the full open reading frames of human NTCP, ASBT, SOAT, OATP1B1, OATP1B3, OATP2B1, and murine Asbt (mAsbt); expressed in transfected cells; host or cells: HEK293 (Flp-In), stably transfected, tetracycline-induced
T2 sequence (P70172 1-348): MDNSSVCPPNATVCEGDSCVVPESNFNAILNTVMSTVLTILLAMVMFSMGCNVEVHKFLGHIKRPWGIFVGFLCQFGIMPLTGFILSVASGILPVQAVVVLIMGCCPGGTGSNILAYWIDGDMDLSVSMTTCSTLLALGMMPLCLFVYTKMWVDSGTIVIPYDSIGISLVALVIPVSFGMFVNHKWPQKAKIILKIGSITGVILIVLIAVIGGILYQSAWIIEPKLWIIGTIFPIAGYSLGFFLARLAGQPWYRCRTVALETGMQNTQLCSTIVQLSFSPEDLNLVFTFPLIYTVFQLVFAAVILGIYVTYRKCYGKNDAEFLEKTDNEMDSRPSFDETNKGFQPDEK
Excerpt: Human embryonic kidney HEK293 cells, stably transfected with the full open reading frames of human NTCP, ASBT, SOAT, OATP1B1, OATP1B3, OATP2B1, and murine Asbt (mAsbt) were used as reported ([18], [20], [21], [22], [23]). The NTCP, ASBT, and mAsbt constructs were C-terminally tagged with the FLAG epitope, and the SOAT construct was C-terminally tagged with green fluorescent protein. Non-transfected Flp-In HEK293 cells (Thermo Fisher Scientific) served as the control. All cell lines were maintained at 37°C, 5% CO2 and 95% humidity in DMEM/F-12 medium (Thermo Fisher Scientific) supplemented with 10% fetal calf serum (Sigma-Aldrich), 4 mM L-glutamine (PAA) and penicillin/streptomycin (PAA). Expression of the respective carrier protein was induced by tetracycline treatment at 1 μg/ml (Carl Roth GmbH + Co. KG).
Cells were seeded onto poly-L-lysine-coated 96-well plates, induced with 1 μg/ml tetracycline, and grown to confluence over 72 h at 37°C. Then, cells were washed with tempered (37°C) phosphate-buffered saline (PBS, containing 137.0 mM NaCl, 2.7 mM KCl, 1.5 mM KH2PO4, and 7.3 mM Na2HPO4, at pH 7.4) and preincubated with 80 μl sodium transport buffer (STB, containing 142.9 mM NaCl, 4.7 mM KCl, 1.2 mM MgSO4, 1.2 mM KH2PO4, 1.8 mM CaCl2, and 20.0 mM HEPES, at pH 7.4) for 5 min at 37°C. For inhibition studies, the medium was replaced by 80 μl STB containing the respective inhibitor or solvent alone and cells were further incubated for 5 min at 37°C. Transport experiments were started by adding 20 μl of a 5-fold concentrated substrate solution (solved in STB). For transport experiments under sodium-free conditions the same buffer composition was used as for STB, but sodium chloride was substituted with equimolar concentrations of choline chloride as previously reported ([20], [24]). Transport experiments were stopped by washing twice with ice-cold PBS and the plates were kept cool on ice until adding the lysis buffer [1% sodium dodecyl sulfate (SDS) and 1 N NaOH]. Then, the cell-associated radioactivity of the respective tritium-labeled substrate or ligand was quantified by liquid scintillation counting using MicroScint-20 scintillation cocktail (Revvity) in a Packard Microplate Scintillation Counter TopCount NXT (Packard Instrument Company). For IC50 transport inhibition measurements, the mean uptake values measured in non-carrier-expressing HEK293 control cells were defined as 0% uptake control and were subtracted from all other values. Values from cells without inhibitor and solvent alone were set to 100%. Finally, all net transport data were expressed as uptake or binding as % of control. […] From the specific uptake rates, Michaelis Menten Km values were calculated by non-linear regression analysis.

Row | SMILES | IC50 (NTCP [1]) | IC50 (NTCP [3]) | IC50 (NTCP [4]) | Inhibition curve/AUC of mAsbt compared to ASBT (murine Asbt (mAsbt)) | other results
1 | CCCCC1(CCCC)CN(c2ccccc2)c2cc(SC)c(OCC(=O)N[C@@H](C(=O)NCC(=O)O)c3ccccc3)cc2S(=O)(=O)C1 [elobixibat] | 147 µM and 36 µM | 19.2 µM and 11.9 µM | 11.7 µM and 11.1 µM | – | IC50 (NTCP [2]; ref PMDA Goofice Report on the Deliberation Results, read-out: IC50 NTCP inhibition): 0.24 µM
2 | CCCCC1(CCCC)CS(=O)(=O)c2ccc(N(C)C)cc2[C@@H](c2ccc(OCc3ccc(C[N+]45CCN(CC4)CC5)cc3)cc2)[C@H]1O [maralixibat] | – | – | – | – | Inhibition of NTCP (NTCP [2]; 50 μM, NTCP expressed in CHO cells, ref FDA NDA 214662 Livmarli): Maralixibat at 50 μM produced 5% inhibition of NTCP expressed in CHO cells.; OATP2B1 inhibition (in words) (OATP2B1; in vitro studies, ref EMA EPAR Product Information Maralixibat): Maralixibat is an OATP2B1 inhibitor based on in vitro studies. No potential for clinically relevant drug-drug interactions (DDI), but theoretical risk of interaction with substrates of this carrier.; IC50 (OATP2B1; in vitro, ref FDA NDA 214662 Livmarli, read-out: IC50 OATP2B1 inhibition): 1.02 µM
3 | CCCCC1(CCCC)CN(c2ccccc2)c2cc(SC)c(OCC(=O)N[C@@H](C(=O)N[C@@H](CC)C(=O)O)c3ccc(O)cc3)cc2S(=O)(=O)N1 [odevixibat] | 144 µM and 15.9 µM | 6.6 µM and 5.4 µM | 8.7 µM and 5.5 µM | much more potent inhibitor of the human ASBT protein compared to mAsbt | –
4 | CCCC[C@]1(CC)CS(=O)(=O)c2cc(CNC(CC(=O)O)CC(=O)O)c(OC)cc2[C@@H](c2ccccc2)N1 [linerixibat] | – | – | – | lower AUC values were determined for mAsbt compared to ASBT but without reaching the level of significance | Transport inhibition at highest substrate concentration (murine Asbt (mAsbt); 500 μM [3H]TC): full transport inhibition; IC50 values at increasing substrate concentrations (in words) (murine Asbt (mAsbt); [3H]TC 0.3-500 μM): remained quite stable; Substrate of OATP2B1 (OATP2B1): is not a substrate
